Reference: US20060069132A1, “Azolecarboxamide herbicides” (priority 2004, published 2006)

Assays:
bermudagrass = assay: Test C pre-/postemergence herbicide test; assay type: in vivo, Cynodon dactylon; details: for Bermudagrass plant response rating: Preemergence, 500 g ai/ha
Procedure, shortened: (§1)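 Emerged plants at the 1- to 4-leaf stage (2–18 cm), or freshly planted seeds, received test chemicals in a non-phytotoxic solvent mixture with surfactant. Response was visually scored against controls after 12 to 14 days in the greenhouse, on a 0 (no effect) to 100 (complete control) scale.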

giant foxtail = assay: Test C pre-/postemergence herbicide test; assay type: in vivo, Setaria faberi; details: for Plant response rating, Foxtail, Giant: preemergence
Procedure, shortened: as §1

lambsquarters = assay: Test C pre-/postemergence herbicide test; assay type: in vivo, Chenopodium album; details: for Plant response rating, Lambsquarters: preemergence
Procedure, shortened: as §1

morningglory = assay: Test C pre-/postemergence herbicide test; assay type: in vivo, Ipomoea coccinea; parameters: key to Plant response rating, Morningglory: 0 = no effect, 100 = complete control; details: for Plant response rating, Morningglory: preemergence
Procedure, shortened: as §1

eastern black nightshade = assay: Test C pre-/postemergence herbicide test; assay type: in vivo, Solanum ptycanthum; details: for Plant response rating, Nightshade: preemergence
Procedure, shortened: as §1

yellow nutsedge = assay: Test C pre-/postemergence herbicide test; assay type: in vivo, Cyperus esculentus; details: for Plant response rating, Nutsedge, Yellow: preemergence
Procedure, shortened: as §1

common ragweed = assay: Test C pre-/postemergence herbicide test; assay type: in vivo, Ambrosia elatior; parameters: key to Plant response rating, Ragweed: 0 = no effect, 100 = complete control; details: for Plant response rating, Ragweed: preemergence
Procedure, shortened: as §1

[1] = tested on: smallflower umbrella sedge; assay: Test C flooded paddy test; assay type: in vivo, Cyperus difformis; details: for Plant response rating, Sedge, Umbrella: 500 g ai/ha, visual rating after 12 to 14 days
barnyardgrass = assay: Test C flooded paddy test; assay type: in vivo, Echinochloa crus-galli; details: for Plant response rating, Barnyardgrass: 500 g ai/ha, visual rating after 12 to 14 days
Procedure, shortened: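 Injury scored visually against controls on a 0 (no effect) to 100 (complete control) scale, 12 to 14 days after treatment in greenhouse. Flooded paddy plants treated at 2-leaf stage; postemergence plants at 1- to 4-leaf stage, 2 to 18 cm tall.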

[2] = 62 g ai/ha, preemergence, scale 0 to 100, 0 no effect, 100 complete control
[3] = 125 g ai/ha, scale 0 (no effect) to 100 (complete control), visual, 12 to 14 days, preemergence
[4] = 250 g ai/ha, scale 0-100, preemergence
[5] = scale 0 to 100, 0 no effect, 100 complete control
[6] = 125 g ai/ha, scale 0 (no effect) to 100 (complete control), visual, 12 to 14 days
[7] = 500 g ai/ha, scale 0 to 100 (0 no effect, 100 complete control), visual, 12 to 14 days
[8] = 125 g ai/ha, scale 0 to 100 (0 no effect, 100 complete control)
[9] = 250 g ai/ha, scale of 0 to 100, 0 is no effect, 100 is complete control
[10] = scale 0 to 100 (0 no effect, 100 complete control)
[11] = 62 g ai/ha, scale 0 to 100 (0 no effect, 100 complete control)
[12] = Preemergence, 500 g ai/ha, scale 0 to 100, 0 no effect, 100 complete control

| Structure (SMILES) | Plant response rating, Bermudagrass (bermudagrass; [2]) | Plant response rating, Bermudagrass (bermudagrass; [3]) | Plant response rating, Bermudagrass (bermudagrass; [4]) | Bermudagrass plant response rating (bermudagrass; [5]) | Plant response rating, Foxtail, Giant (giant foxtail; [6]) | Plant response rating, Foxtail, Giant (giant foxtail; 250 g ai/ha, scale 0-100) | Plant response rating, Lambsquarters (lambsquarters; 62 g ai/ha, scale 0 to 100) | Plant response rating, Lambsquarters (lambsquarters; [6]) | Plant response rating, Lambsquarters (lambsquarters; 250 g ai/ha, scale 0-100) | Plant response rating, Morningglory (morningglory; 62 g ai/ha, scale 0 to 100) | Plant response rating, Morningglory (morningglory; [6]) | Plant response rating, Nightshade (eastern black nightshade; 62 g ai/ha, scale 0 to 100) | Plant response rating, Nightshade (eastern black nightshade; [6]) | Plant response rating, Nutsedge, Yellow (yellow nutsedge; 62 g ai/ha, scale 0 to 100) | Plant response rating, Nutsedge, Yellow (yellow nutsedge; [6]) | Plant response rating, Ragweed (common ragweed; 62 g ai/ha, scale 0 to 100) | Sedge, Umbrella plant response rating [1, 9] | Barnyardgrass plant response rating (barnyardgrass; [11]) | Barnyardgrass plant response rating (barnyardgrass; [9]) | Plant response rating, Barnyardgrass (barnyardgrass; [10]) | also measured |
| --- | --- | --- | --- | --- | --- | --- | --- | --- | --- | --- | --- | --- | --- | --- | --- | --- | --- | --- | --- | --- | --- |
| CCn1nc(C(C)(C)C)cc1C(=O)Nc1cc(C(=S)N(C)C)ccc1F [Compound 294] | 70 | 80 | 90 | 90 | 80 | 90 | 100 | 100 | 100 | 30 | 30 | 100 | 100 | 50 | 55 | 100 | 90 | 75 | 95 | 100 | Plant response rating, Foxtail, Giant (giant foxtail; [7]): 90; Plant response rating, Lambsquarters (lambsquarters; [7]): 100; Plant response rating, Morningglory (morningglory; 250 g ai/ha, scale 0-100): 50; Plant response rating, Morningglory (morningglory; [7]): 50; Plant response rating, Nightshade (eastern black nightshade; 250 g ai/ha, scale 0-100): 100; Plant response rating, Nightshade (eastern black nightshade; [7]): 100; Plant response rating, Nutsedge, Yellow (yellow nutsedge; 250 g ai/ha, scale 0-100): 80; Plant response rating, Nutsedge, Yellow (yellow nutsedge; [7]): 90; Plant response rating, Ragweed (common ragweed; 250 g ai/ha, scale 0-100): 100; Plant response rating, Ragweed (common ragweed; [7]): 100; Sedge, Umbrella plant response rating ([1]; 62 g ai/ha, scale 0 to 100): 80; Sedge, Umbrella plant response rating [1, 8]: 85; Plant response rating, Sedge, Umbrella [1, 10]: 90; Barnyardgrass plant response rating (barnyardgrass; [8]): 90 |
| CCn1nc(C(C)(C)C)cc1C(=O)Nc1cccc(C(N)=O)n1 [Compound 162, 6-[[[3-(1,1-dimethylethyl)-1-ethyl-1H-pyrazol-5-yl]carbonyl]amino]-2-pyridinecarboxamide] | 0 | 0 |  | 40 | 60 |  | 80 | 95 |  | 45 | 100 | 80 | 100 | 0 | 20 | 95 | 75 | 45 | 75 | 90 | Plant response rating, Bermudagrass (bermudagrass; 250 g ai/ha, scale 0 to 100 (0 no effect, 100 complete control), visual, 12 to 14 days, preemergence): 20; Plant response rating, Foxtail, Giant (giant foxtail; 62 g ai/ha, scale 0 to 100): 55; Plant response rating, Foxtail, Giant (giant foxtail; 250 g ai/ha, scale 0 to 100 (0 no effect, 100 complete control), visual, 12 to 14 days): 60; Foxtail, Giant plant response rating (giant foxtail; [12]): 75; Lambsquarters plant response rating (lambsquarters; [12]): 100; Morningglory plant response rating (morningglory; [12]): 100; Nightshade plant response rating (eastern black nightshade; [12]): 100; Nutsedge, Yellow plant response rating (yellow nutsedge; [12]): 60; Plant response rating, Ragweed (common ragweed; [6]): 95; Ragweed plant response rating (common ragweed; [12]): 100; Sedge, Umbrella plant response rating [1, 11]: 70; Barnyardgrass plant response rating (barnyardgrass; 125 g ai/ha, scale of 0 to 100, 0 is no effect, 100 is complete control): 65 |
| CCNC(=O)c1cccc(NC(=O)c2cc(C3(C)CC3)nn2CC)c1 [Compound 306] | 40 | 85 | 90 | 100 | 40 | 90 | 100 | 100 | 100 | 5 | 5 | 90 | 95 | 0 | 0 | 0 | 90 | 0 | 55 | 70 | Plant response rating, Foxtail, Giant (giant foxtail; 62 g ai/ha, scale 0 to 100): 5; Plant response rating, Foxtail, Giant (giant foxtail; [7]): 100; Plant response rating, Lambsquarters (lambsquarters; [7]): 100; Plant response rating, Morningglory (morningglory; 250 g ai/ha, scale 0-100): 10; Plant response rating, Morningglory (morningglory; [7]): 20; Plant response rating, Nightshade (eastern black nightshade; 250 g ai/ha, scale 0-100): 100; Plant response rating, Nightshade (eastern black nightshade; [7]): 100; Plant response rating, Nutsedge, Yellow (yellow nutsedge; 250 g ai/ha, scale 0-100): 10; Plant response rating, Nutsedge, Yellow (yellow nutsedge; [7]): 40; Plant response rating, Ragweed (common ragweed; [7]): 100; Sedge, Umbrella plant response rating ([1]; 62 g ai/ha, scale 0 to 100): 85; Sedge, Umbrella plant response rating [1, 8]: 90; Plant response rating, Sedge, Umbrella [1, 10]: 90; Barnyardgrass plant response rating (barnyardgrass; [8]): 45 |
| CCc1nn(C(C)(C)C)cc1C(=O)Nc1cc(C(=O)N(C)C)ccn1 [Compound 293] | 90 | 95 | 100 | 100 | 70 | 100 | 100 | 100 | 100 |  |  | 65 | 100 | 0 | 0 | 85 | 80 | 0 | 70 | 80 | Plant response rating, Foxtail, Giant (giant foxtail; 62 g ai/ha, scale 0 to 100): 10; Plant response rating, Foxtail, Giant (giant foxtail; [7]): 100; Plant response rating, Lambsquarters (lambsquarters; [7]): 100; Plant response rating, Morningglory (morningglory; 250 g ai/ha, scale 0-100): 100; Plant response rating, Nightshade (eastern black nightshade; 250 g ai/ha, scale 0-100): 100; Plant response rating, Nightshade (eastern black nightshade; [7]): 100; Plant response rating, Nutsedge, Yellow (yellow nutsedge; 250 g ai/ha, scale 0-100): 0; Plant response rating, Nutsedge, Yellow (yellow nutsedge; [7]): 20; Plant response rating, Ragweed (common ragweed; 250 g ai/ha, scale 0-100): 100; Plant response rating, Ragweed (common ragweed; [7]): 100; Sedge, Umbrella plant response rating ([1]; 62 g ai/ha, scale 0 to 100): 20; Sedge, Umbrella plant response rating [1, 8]: 75; Plant response rating, Sedge, Umbrella [1, 10]: 90; Barnyardgrass plant response rating (barnyardgrass; [8]): 20 |
| CCn1nc(C(C)(C)C)cc1C(=O)Nc1cc(C(=S)N(C)C)ccn1 [Compound 334] | 100 | 100 | 100 |  | 80 | 100 | 100 | 100 | 100 | 5 | 20 | 100 | 100 | 10 | 40 | 75 | 90 | 70 | 95 | 95 | Plant response rating, Bermudagrass (bermudagrass; 31 g ai/ha, scale 0 to 100, 0 no effect, 100 complete control, last section of Table C (species set of preemergence test)): 100; Plant response rating, Foxtail, Giant (giant foxtail; 62 g ai/ha, scale 0 to 100): 60; Plant response rating, Morningglory (morningglory; 250 g ai/ha, scale 0-100): 40; Plant response rating, Nightshade (eastern black nightshade; 250 g ai/ha, scale 0-100): 100; Plant response rating, Nutsedge, Yellow (yellow nutsedge; 31 g ai/ha, scale 0 to 100, last section of Table C): 5; Plant response rating, Nutsedge, Yellow (yellow nutsedge; 250 g ai/ha, scale 0-100): 55; Plant response rating, Ragweed (common ragweed; 250 g ai/ha, scale 0-100): 100; Sedge, Umbrella plant response rating ([1]; 62 g ai/ha, scale 0 to 100): 80; Sedge, Umbrella plant response rating [1, 8]: 90; Plant response rating, Sedge, Umbrella [1, 10]: 95; Barnyardgrass plant response rating (barnyardgrass; [8]): 90 |
